Reference: patent US8324346B2, “Bioactive keratin peptides” (Keraplast Technologies, Ltd., priority 2002, dated 2012)

What was measured:
keratinocytes = assay: Mitogenic effects of crude peptide compositions on keratinocytes (OD 530 nm); format: cell-based, human; conditions: 5 days of exposure, positive control
human dermal fibroblasts = assay: Biological effect of peptide compositions on human dermal fibroblasts (cell proliferation); format: cell-based; conditions: for increase in cell proliferation: human dermal fibroblasts, positive control
Method: A second set of studies was performed that tested the biological effect of the peptide compositions on human dermal fibroblasts after three and five days of exposure. After three days of exposure, the peptide composition produced a greater than 25% increase in cell proliferation at concentrations between 0.5 and 10 ug/ml. The positive control, […] fibroblast growth factor (bFGF25), produced a greater than 30% increase in cell proliferation. After five days of exposure, peptide compositions at a concentration of 0.5 to 10 ug/ml produced increases in cell proliferation of between 9% and 12%. The positive control produced a greater than 13% increase.
Related in vitro tests confirmed that the mitogenic effect of the peptide compositions on dermal fibroblasts increased with concentration up to nearly 150% of the negative control at 1000 ug/ml concentration. Compositions with greater purity increased the mitogenic effect to over 1000% of the negative control. The positive control in these studies, platelet derived growth factor (PDGF), increased the mitogenic effect to nearly 700% of the negative control.

## EGF25: epidermal growth factor (EGF25), positive control in the keratinocyte studies
keratinocytes
  increase in keratinocyte proliferation: greater than 25%

## PDGF
Human dermal fibroblasts; dermal fibroblasts, concentration not given
  mitogenic effect, % of the negative control: ~700%

## bFGF25: bovine-derived fibroblast growth factor (bFGF25), positive control
Human dermal fibroblasts; five days of exposure
  increase in cell proliferation: greater than 13%
Human dermal fibroblasts; three days of exposure
  increase in cell proliferation: greater than 30%
